# Results taken from ChEMBL document CHEMBL4130353, “2-Substituted 3,7,8-trimethylnaphtho[1,2-b]furan-4,5-diones as specific L-shaped NQO1-mediated redox modulators for the treatment of non-small cell lung cancer” (Eur J Med Chem, 2017).
# Active and inactive are the calls of the source. The calls are words filed in the database; no cut-off is given here.
# Columns and labels:
# A549 [1] = assay: Cytotoxicity against human A549 cells assessed as cell growth inhibition preincubated for 24 hrs followed by compound washout measured after 72 hrs by MTT assay; type: functional, cell-based
# NCI-H1299 = assay: Cytotoxicity against human NCI-H1299 cells assessed as assessed as cell growth inhibition for 24 hrs followed by compound washout measured after 72 hrs by MTT assay; type: functional, cell-based
# MCF7 = assay: Cytotoxicity against human MCF7 cells assessed as cell growth inhibition preincubated for 24 hrs followed by compound washout measured after 72 hrs by MTT assay; type: functional, cell-based
# HepG2 = assay: Cytotoxicity against human HepG2 cells assessed as cell growth inhibition preincubated for 24 hrs followed by compound washout measured after 72 hrs by MTT assay; type: functional, cell-based
# HCT-116 = assay: Cytotoxicity against human HCT116 cells assessed as cell growth inhibition preincubated for 24 hrs followed by compound washout measured after 72 hrs by MTT assay; type: functional, cell-based
# HEK293 = assay: Cytotoxicity against HEK293 cells assessed as cell growth inhibition preincubated for 24 hrs followed by compound washout measured after 72 hrs by MTT assay; type: functional, cell-based; conditions: Homo sapiens
# A549 [2] = assay: Cytotoxicity against human A549 cells assessed as cell growth inhibition preincubated for 24 hrs followed by compound washout measured after 72 hrs in presence of NQO1 inhibitor DIC by MTT assay; type: functional, cell-based
# NCI-H596 = assay: Cytotoxicity against human NCI-H596 cells assessed as cell growth inhibition preincubated for 24 hrs followed by compound washout measured after 72 hrs by MTT assay; type: functional, cell-based
# [3] = target: NAD(P)H dehydrogenase [quinone] 1 (Homo sapiens) (UniProt P15559); assay: Substrate activity at NQO1 in human A549 cells assessed as induction of enzyme-catalyzed ROS production at 10 uM after 1 to 3 hrs in presence of DIC by DCFH-DA-based flow cytometry; type: cell-based
# Sequence of NAD(P)H dehydrogenase [quinone] 1 (Homo sapiens) (P15559 whole entry): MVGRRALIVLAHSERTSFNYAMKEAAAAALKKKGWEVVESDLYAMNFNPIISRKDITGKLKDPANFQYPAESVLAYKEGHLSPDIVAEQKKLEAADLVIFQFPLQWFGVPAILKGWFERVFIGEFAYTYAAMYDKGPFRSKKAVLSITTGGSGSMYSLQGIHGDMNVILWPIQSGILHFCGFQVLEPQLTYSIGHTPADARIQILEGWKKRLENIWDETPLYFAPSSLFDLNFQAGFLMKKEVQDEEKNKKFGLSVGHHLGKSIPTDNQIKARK
# L02 = assay: Induction of intracellular ROS levels in human L02 cells at 10 uM after 1 to 3 hrs by DCFH-DA-based flow cytometry; type: cell-based; conditions: l02, 10 µM
# [4] = target: NAD(P)H dehydrogenase [quinone] 1 (Homo sapiens) (UniProt P15559); assay: Substrate activity at NQO1 in human A549 cells assessed as induction of enzyme-catalyzed lipid peroxidation by measuring MDA equivalents per protein at 10 uM after 24 hrs by TBARS assay; type: cell-based
# A549 [5] = assay: Effect on total AKT protein levels in human A549 cells at 1 uM after 3 hrs by Western blot analysis relative to control; type: ADME, cell-based; conditions: a549, 3 h
# A549 [6] = assay: Effect on total AKT protein levels in human A549 cells at 10 uM after 3 hrs by Western blot analysis relative to control; type: ADME, cell-based; conditions: a549, 3 h
# A549 [7] = assay: Effect on total AKT protein levels in human A549 cells at 10 uM after 3 hrs in presence of NAC by Western blot analysis relative to control; type: ADME, cell-based; conditions: a549, 3 h
# A549 [8] = assay: Effect on total AKT protein levels in human A549 cells at 10 uM after 3 hrs in presence of DIC by Western blot analysis relative to control; type: ADME, cell-based; conditions: a549, 3 h
# [9] = target: NAD(P)H dehydrogenase [quinone] 1 (Homo sapiens) (UniProt P15559); assay: Substrate activity at NQO1 in human A549 cells assessed as induction of ROS-induced Akt phosphorylation at S473 at 1 uM after 3 hrs by Western blot analysis relative to control; type: cell-based
# [10] = target: NAD(P)H dehydrogenase [quinone] 1 (Homo sapiens) (UniProt P15559); assay: Substrate activity at NQO1 in human A549 cells assessed as induction of ROS-induced Akt phosphorylation at S473 at 10 uM after 3 hrs in presence of DIC by Western blot analysis relative to control; type: cell-based
# [11] = target: NAD(P)H dehydrogenase [quinone] 1 (Homo sapiens) (UniProt P15559); assay: Substrate activity at NQO1 in human A549 cells assessed as induction of ROS-induced JNK phosphorylation at 1 uM after 3 hrs by Western blot analysis relative to control; type: cell-based
# [12] = target: NAD(P)H dehydrogenase [quinone] 1 (Homo sapiens) (UniProt P15559); assay: Substrate activity at NQO1 in human A549 cells assessed as induction of ROS-induced JNK phosphorylation at 5 uM after 3 hrs by Western blot analysis relative to control; type: cell-based
# [13] = target: NAD(P)H dehydrogenase [quinone] 1 (Homo sapiens) (UniProt P15559); assay: Substrate activity at NQO1 in human A549 cells assessed as induction of ROS-induced JNK phosphorylation at 10 uM after 3 hrs by Western blot analysis relative to control; type: cell-based
# [14] = target: NAD(P)H dehydrogenase [quinone] 1 (Homo sapiens) (UniProt P15559); assay: Substrate activity at NQO1 in human A549 cells assessed as induction of ROS-induced JNK phosphorylation at 10 uM after 3 hrs in presence of DIC by Western blot analysis relative to control; type: cell-based
# A549 [15] = assay: Effect on total p38 protein levels in human A549 cells at 5 uM after 3 hrs by Western blot analysis relative to control; type: ADME, cell-based; conditions: a549, 3 h
# A549 [16] = assay: Effect on total p38 protein levels in human A549 cells at 10 uM after 3 hrs by Western blot analysis relative to control; type: ADME, cell-based; conditions: a549, 3 h
# A549 [17] = assay: Effect on total p38 protein levels in human A549 cells at 10 uM after 3 hrs in presence of NAC by Western blot analysis relative to control; type: ADME, cell-based; conditions: a549, 3 h
# A549 [18] = assay: Effect on total ERK protein levels in human A549 cells at 1 uM after 3 hrs by Western blot analysis relative to control; type: ADME, cell-based; conditions: a549, 3 h
# A549 [19] = assay: Effect on total ERK protein levels in human A549 cells at 10 uM after 3 hrs in presence of DIC by Western blot analysis relative to control; type: ADME, cell-based; conditions: a549, 3 h
# [20] = target: NAD(P)H dehydrogenase [quinone] 1 (Homo sapiens) (UniProt P15559); assay: Substrate activity at NQO1 in human A549 cells assessed as induction of ROS-induced ERK phosphorylation at 5 uM after 3 hrs by Western blot analysis relative to control; type: cell-based
# [21] = target: NAD(P)H dehydrogenase [quinone] 1 (Homo sapiens) (UniProt P15559); assay: Substrate activity at NQO1 in human A549 cells assessed as induction of ROS-induced ERK phosphorylation at 10 uM after 3 hrs by Western blot analysis relative to control; type: cell-based
# [22] = target: NAD(P)H dehydrogenase [quinone] 1 (Homo sapiens) (UniProt P15559); assay: Substrate activity at NQO1 in human A549 cells assessed as induction of ROS-induced Akt phosphorylation at S473 after 3 hrs by Western blot analysis; type: cell-based
# [23] = target: NAD(P)H dehydrogenase [quinone] 1 (Homo sapiens) (UniProt P15559); assay: Substrate activity at NQO1 in human A549 cells assessed as induction of ROS-induced Akt phosphorylation at […] after 3 hrs by Western blot analysis; type: cell-based
# [24] = target: NAD(P)H dehydrogenase [quinone] 1 (Homo sapiens) (UniProt P15559); assay: Substrate activity at NQO1 in human A549 cells assessed as induction of ROS-induced JNK phosphorylation after 3 hrs by Western blot analysis; type: cell-based
# A549 [25] = assay: Induction of apoptosis in human A549 cells assessed as chromatin condensation after 24 hrs by DAPI-staining based microscopy; type: functional, cell-based
# A549 [26] = assay: Induction of apoptosis in human A549 cells assessed as increase in cleaved PARP expression after 24 hrs by Western blot analysis; type: functional, cell-based
# A549 [27] = assay: Induction of apoptosis in human A549 cells assessed as increase in cleaved PARP expression at 10 uM after 24 hrs in presence of NAC by Western blot analysis; type: functional, cell-based
# A549 [28] = assay: Antitumor activity against human A549 cells xenografted in athymic nude mouse assessed as tumor growth inhibition at 30 mg/kg, iv administered every other day for 3 weeks measured every day during compound dosing relative to control; type: functional; conditions: 504 h, read-out: TGI
# A549 [29] = assay: Reduction of intracellular NADPH levels in human A549 cells xenografted in athymic nude mouse at 15 to 30 mg/kg, iv administered every other day for 3 weeks by fluorescent NADP+/NADPH detection based assay; type: functional, organism-based
# A549 [30] = assay: Reduction of intracellular GSH levels in human A549 cells xenografted in athymic nude mouse at 15 to 30 mg/kg, iv administered every other day for 3 weeks by fluorescence-based assay; type: functional, organism-based
compound,measurement,setting,value
Cc1cc2c(cc1C)-c1oc(CNc3ccc(CN4CCOCC4)cc3)c(C)c1C(=O)C2=O,IC50,A549 [1],2.1 µM
same,IC50,NCI-H1299,3.8 µM
same,IC50,MCF7,4.7 µM
same,IC50,HepG2,4.3 µM
same,IC50,HCT-116,4.9 µM
same,IC50,HEK293,3.9 µM
same,IC50,A549 [2],> 50 µM
same,IC50,NCI-H596,30 µM
same,Activity,[3],inactive
same,Activity,L02,Non-Toxic
same,Activity,[4],18.6 nmol/mg
same,fold change (FC),A549 [5],1.07
same,fold change (FC),A549 [6],1.3
same,fold change (FC),A549 [7],1.07
same,fold change (FC),A549 [8],1.15
same,fold change (FC),[9],1.51
same,fold change (FC),[10],1.36
same,fold change (FC),[11],17.4
same,fold change (FC),[12],25.4
same,fold change (FC),[13],30.5
same,fold change (FC),[14],7.1
same,fold change (FC),A549 [15],1.1
same,fold change (FC),A549 [16],1.1
same,fold change (FC),A549 [17],0.99
same,fold change (FC),A549 [18],1.01
same,fold change (FC),A549 [19],0.87
same,fold change (FC),[20],2.41
same,fold change (FC),[21],2.49
same,Activity,[22],Dose-dependent effect
same,Activity,[23],Dose-dependent effect
same,Activity,[24],Dose-dependent effect
same,Activity,A549 [25],Dose-dependent effect
same,Activity,A549 [26],Dose-dependent effect
same,Activity,A549 [27],inactive
same,inhibition in vivo at 30 mg/kg,A549 [28],87.1%
same,Activity,A549 [29],Active
same,Activity,A549 [30],Active
